Columns and labels:
Assay type in all cases: in vivo
rice (Oryra sativa) = assay: Test B flooded paddy test; details: 250 g ai/ha, Flood, 0 to 100 scale where 0 is no effect and 100 is complete control
Method in brief: (§1)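 Response scored visually against untreated controls, 0 = no effect and 100 = complete control, 13–15 d after treatment in the greenhouse. Compounds added to paddy water held 3 cm above soil surface. Treatment given at 2-leaf stage.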

[1] = test system: ducksalad (Heteranthera limosa); assay: Test B flooded paddy test; details: 250 g ai/ha, Flood, 0 to 100 scale where 0 is no effect and 100 is complete control
Method in brief: as §1

[2] = test system: sedge, umbrella (small-flower umbrella sedge, Cyperus difformis); assay: Test B flooded paddy test; details: 250 g ai/ha, Flood, 0 to 100 scale where 0 is no effect and 100 is complete control
Method in brief: as §1

[3] = test system: barnyardgrass (Echinochloa crus-galli); assay: Test B flooded paddy test; details: 250 g ai/ha, Flood, 0 to 100 scale where 0 is no effect and 100 is complete control
Method in brief: as §1

[4] = test system: ragweed (common ragweed, Ambrosia elatior); assay: Test A preemergence
Method in brief: (§2)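 Preemergence soil spray on seeded pots or post-emergence spray on 1–2 leaf plants, in loam–sand blend. Greenhouse ~10 d. Visual rating 0–100 against untreated plants.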

[5] = test system: pigweed (Amaranthus retroflexus); assay: Test A preemergence
[6] = test system: ryegrass, Italian (Italian ryegrass, Lolium multiflorum); assay: Test A preemergence
Method in brief: as §2

Kochia (Kochia scoparia) [7] = assay: Test A preemergence
Method in brief: as §2

[8] = test system: barnyardgrass (Echinochloa crus-galli); assay: Test A preemergence
Method in brief: as §2

[9] = test system: giant foxtail (Setaria faberii); assay: Test A preemergence
Method in brief: as §2

[10] = test system: ragweed (common ragweed, Ambrosia elatior); assay: Test A postemergence
Method in brief: as §2

[11] = test system: pigweed (Amaranthus retroflexus); assay: Test A postemergence
Method in brief: as §2

[12] = test system: ryegrass, Italian (Italian ryegrass, Lolium multiflorum); assay: Test A postemergence
Method in brief: as §2

[13] = test system: blackgrass (Alopecurus myosuroides); assay: Test A postemergence
Method in brief: as §2

[14] = test system: wheat (Triticum aestivum); assay: Test A postemergence
Method in brief: as §2

[15] = test system: Galium (catchweed bedstraw, Galium aparine); assay: Test A postemergence
Method in brief: as §2

Kochia (Kochia scoparia) [16] = assay: Test A postemergence
Method in brief: as §2

[17] = test system: barnyardgrass (Echinochloa crus-galli); assay: Test A postemergence
Method in brief: as §2

corn (Zea mays) = assay: Test A postemergence
Method in brief: as §2

[18] = test system: giant foxtail (Setaria faberii); assay: Test A postemergence
Method in brief: as §2

[19] = 125 g ai/ha, Preemergence, visual injury after approximately 10 d, 0 to 100 scale where 0 is no effect and 100 is complete control
[20] = 500 g ai/ha, preemergence, 0 to 100 scale, 0 = no effect, 100 = complete control
[21] = 125 g ai/ha, postemergence, visual rating after approx. 10 d, 0 to 100 scale (0 no effect, 100 complete control)
[22] = Postemergence, 500 g ai/ha, 0 to 100 scale where 0 is no effect and 100 is complete control

With `CN1C[C@H](c2csc3c2CCC3)[C@@H](C(=O)Nc2ccccc2F)C1=O` [Compound 1277] the pest or weed control at 250 g/ha (rice (Oryra sativa); Oryza sativa, read-out: Rice plant response rating) was 25%, the pest or weed control at 250 g/ha ([1]; Heteranthera limosa, read-out: Ducksalad plant response rating) was 60% and the pest or weed control at 250 g/ha ([2]; Cyperus difformis, read-out: Sedge, Umbrella plant response rating) was 0%. For the same molecule, the pest or weed control at 250 g/ha ([3]; Echinochloa crus-galli, read-out: Barnyardgrass plant response rating) was 40%, the pest or weed control at 31 g/ha ([4]; Ambrosia artemisiifolia, pre-emergence, 240 h, 31 g ai/ha, Preemergence, 0 to 100 scale where 0 is no effect and 100 is complete control, read-out: Ragweed plant response rating) was 0% and the pest or weed control at 125 g/ha ([4]; Ambrosia artemisiifolia, pre-emergence, 240 h, 125 g ai/ha, preemergence, visual injury rating, 0 to 100 scale where 0 is no effect and 100 is complete control, approximately 10 d, read-out: Ragweed plant response rating) was 0%. It also gave a pest or weed control at 31 g/ha ([5]; Amaranthus retroflexus, pre-emergence, 240 h, 31 g ai/ha, Preemergence, 0 to 100 scale where 0 is no effect and 100 is complete control, read-out: Pigweed plant response rating) of 0%, a pest or weed control at 125 g/ha ([5]; Amaranthus retroflexus, pre-emergence, 240 h, 125 g ai/ha, preemergence, visual injury rating, 0 to 100 scale where 0 is no effect and 100 is complete control, approximately 10 d, read-out: Pigweed plant response rating) of 0% and a pest or weed control at 31 g/ha ([6]; Lolium multiflorum, pre-emergence, 240 h, 31 g ai/ha, Preemergence, 0 to 100 scale where 0 is no effect and 100 is complete control, read-out: Ryegrass, Italian plant response rating) of 0%. It also gave a pest or weed control at 125 g/ha ([6]; Lolium multiflorum, pre-emergence, 240 h, 125 g ai/ha, preemergence, visual injury rating, 0 to 100 scale where 0 is no effect and 100 is complete control, approximately 10 d, read-out: Ryegrass, Italian plant response rating) of 0%, a pest or weed control at 31 g/ha (Kochia (Kochia scoparia) [7]; Bassia scoparia, pre-emergence, 240 h, 31 g ai/ha, Preemergence, 0 to 100 scale where 0 is no effect and 100 is complete control, read-out: Kochia plant response rating) of 0% and a pest or weed control at 125 g/ha (Kochia (Kochia scoparia) [7]; Bassia scoparia, pre-emergence, 240 h, 125 g ai/ha, preemergence, visual injury rating, 0 to 100 scale where 0 is no effect and 100 is complete control, approximately 10 d, read-out: Kochia plant response rating) of 0%. It also gave a pest or weed control at 31 g/ha ([8]; Echinochloa crus-galli, pre-emergence, 240 h, 31 g ai/ha, Preemergence, 0 to 100 scale where 0 is no effect and 100 is complete control, read-out: Barnyardgrass plant response rating) of 80%, a pest or weed control at 125 g/ha ([8]; Echinochloa crus-galli, pre-emergence, 240 h, 125 g ai/ha, preemergence, visual injury rating, 0 to 100 scale where 0 is no effect and 100 is complete control, approximately 10 d, read-out: Barnyardgrass plant response rating) of 100% and a pest or weed control at 31 g/ha ([9]; Setaria faberi, pre-emergence, 240 h, 31 g ai/ha, Preemergence, 0 to 100 scale where 0 is no effect and 100 is complete control, read-out: Foxtail, Giant plant response rating) of 90%. It also gave a pest or weed control at 125 g/ha ([9]; Setaria faberi, pre-emergence, 240 h, 125 g ai/ha, preemergence, visual injury rating, 0 to 100 scale where 0 is no effect and 100 is complete control, approximately 10 d, read-out: Foxtail, Giant plant response rating) of 100%, a pest or weed control at 125 g/ha ([10]; Ambrosia artemisiifolia, post-emergence, 240 h, 125 g ai/ha, Postemergence, visual rating about 10 d after treatment, read-out: Ragweed plant response rating (0 to 100 scale)) of 30% and a pest or weed control at 31 g/ha ([10]; Ambrosia artemisiifolia, post-emergence, 240 h, Postemergence, 31 g ai/ha, 0 is no effect, 100 is complete control, read-out: Ragweed plant response rating (0 to 100 scale)) of 30%. It also gave a pest or weed control at 125 g/ha ([11]; Amaranthus retroflexus, post-emergence, 240 h, 125 g ai/ha, Postemergence, visual rating about 10 d after treatment, read-out: Pigweed plant response rating (0 to 100 scale)) of 0%, a pest or weed control at 31 g/ha ([11]; Amaranthus retroflexus, post-emergence, 240 h, Postemergence, 31 g ai/ha, 0 is no effect, 100 is complete control, read-out: Pigweed plant response rating (0 to 100 scale)) of 0% and a pest or weed control at 125 g/ha ([12]; Lolium multiflorum, post-emergence, 240 h, 125 g ai/ha, Postemergence, visual rating about 10 d after treatment, read-out: Ryegrass, Italian plant response rating (0 to 100 scale)) of 0%. For the same molecule, the pest or weed control at 31 g/ha ([12]; Lolium multiflorum, post-emergence, 240 h, Postemergence, 31 g ai/ha, 0 is no effect, 100 is complete control, read-out: Ryegrass, Italian plant response rating (0 to 100 scale)) was 0%, the pest or weed control at 125 g/ha ([13]; Alopecurus myosuroides, post-emergence, 240 h, 125 g ai/ha, Postemergence, visual rating about 10 d after treatment, read-out: Blackgrass plant response rating (0 to 100 scale)) was 0% and the pest or weed control at 31 g/ha ([13]; Alopecurus myosuroides, post-emergence, 240 h, Postemergence, 31 g ai/ha, 0 is no effect, 100 is complete control, read-out: Blackgrass plant response rating (0 to 100 scale)) was 0%. For the same molecule, the plant injury at 125 g/ha ([14]; Triticum aestivum, post-emergence, 240 h, 125 g ai/ha, Postemergence, visual rating about 10 d after treatment, read-out: Wheat plant response rating (0 to 100 scale)) was 0%, the plant injury at 31 g/ha ([14]; Triticum aestivum, post-emergence, 240 h, Postemergence, 31 g ai/ha, 0 is no effect, 100 is complete control, read-out: Wheat plant response rating (0 to 100 scale)) was 0% and the pest or weed control at 125 g/ha ([15]; Galium, post-emergence, 240 h, 125 g ai/ha, Postemergence, visual rating about 10 d after treatment, read-out: Galium plant response rating (0 to 100 scale)) was 0%. The pest or weed control at 31 g/ha ([15]; Galium, post-emergence, 240 h, Postemergence, 31 g ai/ha, 0 is no effect, 100 is complete control, read-out: Galium plant response rating (0 to 100 scale)) was 0%, the pest or weed control at 125 g/ha (Kochia (Kochia scoparia) [16]; Bassia scoparia, post-emergence, 240 h, 125 g ai/ha, Postemergence, visual rating about 10 d after treatment, read-out: Kochia plant response rating (0 to 100 scale)) was 0% and the pest or weed control at 31 g/ha (Kochia (Kochia scoparia) [16]; Bassia scoparia, post-emergence, 240 h, Postemergence, 31 g ai/ha, 0 is no effect, 100 is complete control, read-out: Kochia plant response rating (0 to 100 scale)) was 0%. The pest or weed control at 125 g/ha ([17]; Echinochloa crus-galli, post-emergence, 240 h, 125 g ai/ha, Postemergence, visual rating about 10 d after treatment, read-out: Barnyardgrass plant response rating (0 to 100 scale, 0 no effect, 100 complete control)) was 80%, the pest or weed control at 31 g/ha ([17]; Echinochloa crus-galli, post-emergence, 240 h, Postemergence, 31 g ai/ha, 0 is no effect, 100 is complete control, read-out: Barnyardgrass plant response rating (0 to 100 scale)) was 30% and the plant injury at 125 g/ha (corn (Zea mays); Zea mays, post-emergence, 240 h, 125 g ai/ha, Postemergence, visual rating about 10 d after treatment, read-out: Corn plant response rating (0 to 100 scale)) was 0%. The plant injury at 31 g/ha (corn (Zea mays); Zea mays, post-emergence, 240 h, Postemergence, 31 g ai/ha, 0 is no effect, 100 is complete control, read-out: Corn plant response rating (0 to 100 scale)) was 0%, the pest or weed control at 125 g/ha ([18]; Setaria faberi, post-emergence, 240 h, 125 g ai/ha, Postemergence, visual rating about 10 d after treatment, read-out: Foxtail, Giant plant response rating (0 to 100 scale)) was 70% and the pest or weed control at 31 g/ha ([18]; Setaria faberi, post-emergence, 240 h, Postemergence, 31 g ai/ha, 0 is no effect, 100 is complete control, read-out: Foxtail, Giant plant response rating (0 to 100 scale)) was 50%.
With `CN1CC(c2cccc(OC(F)F)c2)C(C(=O)Nc2ccc(F)cc2F)C1=O` (stereo not drawn) [Compound 617] the “Plant response rating, Rice” value (rice (Oryra sativa); 13 to 15 d) was 10, the “Plant response rating, Ducksalad” value ([1]; 13 to 15 d) was 100 and the “Plant response rating, Sedge, Umbrella” value ([2]; 13 to 15 d) was 0. For the same molecule, the “Plant response rating, Barnyardgrass” value ([3]; 13 to 15 d) was 90, the “Plant response rating, Ragweed” value [4, 19] was 30 and the “Plant response rating, Ragweed” value [4, 20] was 60. The “Plant response rating, Pigweed” value [5, 19] was 90, the “Plant response rating, Pigweed” value [5, 20] was 90 and the “Plant response rating, Ryegrass, Italian” value [6, 19] was 70. The “Plant response rating, Ryegrass, Italian” value [6, 20] was 90, the “Plant response rating, Kochia” value (Kochia (Kochia scoparia) [7]; [19]) was 70 and the “Plant response rating, Kochia” value (Kochia (Kochia scoparia) [7]; [20]) was 70. The “Plant response rating, Barnyardgrass” value [8, 19] was 90, the “Plant response rating, Barnyardgrass” value [8, 20] was 90 and the “Plant response rating, Foxtail, Giant” value [9, 19] was 90. For the same molecule, the “Plant response rating, Foxtail, Giant” value [9, 20] was 100, the “Plant response rating, Ragweed” value [10, 21] was 20 and the “Plant response rating, Ragweed” value [10, 22] was 50. For the same molecule, the “Plant response rating, Pigweed” value [11, 21] was 30, the “Plant response rating, Pigweed” value [11, 22] was 50 and the “Plant response rating, Ryegrass, Italian” value [12, 21] was 20. For the same molecule, the “Plant response rating, Ryegrass, Italian” value [12, 22] was 50, the “Plant response rating, Blackgrass” value [13, 21] was 40 and the “Plant response rating, Blackgrass” value [13, 22] was 60. The “Plant response rating, Wheat” value [14, 21] was 50, the “Plant response rating, Wheat” value [14, 22] was 60 and the “Plant response rating, Galium” value [15, 21] was 60. The “Plant response rating, Galium” value [15, 22] was 60, the “Plant response rating, Kochia” value (Kochia (Kochia scoparia) [16]; [21]) was 50 and the “Plant response rating, Kochia” value (Kochia (Kochia scoparia) [16]; [22]) was 60. For the same molecule, the “Plant response rating, Barnyardgrass” value [17, 21] was 90, the “Plant response rating, Barnyardgrass” value [17, 22] was 90 and the “Plant response rating, Corn” value (corn (Zea mays); [21]) was 80. For the same molecule, the “Plant response rating, Corn” value (corn (Zea mays); [22]) was 80, the “Plant response rating, Foxtail, Giant” value [18, 21] was 90 and the “Plant response rating, Foxtail, Giant” value [18, 22] was 90.

Source: US12077503B2, “Substituted cyclic amides and their use as herbicides” (FMC CORPORATION, priority 2015, dated 2024)
